Positions count from the first letter of the chain named.
What was measured:
Type in all cases: biochemical
[1] = system: Pseudomonas sp. SE83 CPC acylase AcyII fivefold mutant F169αY/M31βL/F58βM/H70βS/I176βV (mI176); experiment: CPC hydrolysis kinetics (Lineweaver-Burk plot), fivefold mutant; settings: substrate CPC; fivefold mutant vs wild-type
Experimental: (§1) The enzyme activity of CPC acylase mutant to CPC was measured according to the method described by Park et al. with minor modifications as follows (Park, et al., Kor. J. Appl. Microbiol. Biotechnol. 23: 559-564, 1995). A substrate solution was prepared by dissolving CPC (purity 74.2%; CJ Corp., Korea) in 0.1 M Tris-HCl buffer solution (pH 8.0) at a concentration of 20 mg/ml and adjusting pH to 8 with 1 N NaOH. 20 μl of the CPC solution was mixed with 20 μl of the crude enzyme solution prepared above and the reaction mixture was incubated at 37° C. for 5 min. After the reaction, the mixture (200 μl) of 50 mM NaOH and 20% glacial acetic acid (1:2) was added thereto to stop the reaction. 200 μl of the supernatant recovered from the reaction mixture by centrifugation was mixed with 40 μl of 0.5% (w/v) PDAB (p-dimethylaminobenzaldehyde; Sigma, USA) dissolved in a methanol and the reaction mixture was incubated at 37° C. for 10 min. After the reaction, the absorbance of reaction mixture was measured at 415 nm and quantified by comparing with a calibration curve of standard material. At this time, 1 unit has been defined as the amount of enzyme capable to produce 1 μmole of 7-ACA from CPC per minute. Meanwhile, the specific activity of CPC acylase mutant for CPC was determined by measuring the amount of protein remaining in the enzyme solution according to the method described by Bradford (Bradford, M., Anal. Biochem. 72: 248-254, 1976) and representing it as an active unit corresponding to 1 mg of protein. The reactivity of CPC acylase mutant to CPC was determined by the following steps of adding the same amount of protein to a reaction mixture, performing an enzyme reaction for a fixed time, measuring the amount of 7-ACA produced in the reaction mixture, and representing it as a relative value. The end-product inhibition by 7-ACA was determined by adding a protein corresponding to the same active unit to a reaction mixture, performing an enzyme reaction for a fixed time; measuring the amount of 7-ACA produced in the reaction mixture, and representing it as a relative value.
(§2) E. coli MC1061 transformant containing the recombinant plasmid introduced with the wild-type or the inventive CPC acylase mutant gene was cultivated in 1 l of a terrific broth (1.2% Bacto-Trypton, 2.4% Yeast Extract, 0.4% glycerol, […]) containing […] of chloramphenicol at 30° C. for 16 hr to obtain a pre-culture solution. 10 ml of the pre-culture solution was inoculated into the same medium, and then, cultured at 25° C., 200 rpm for 48 hr with vigorous shaking. The culture solution was subjected to centrifugation at 4° C., 8,000 rpm for 10 min to separate a precipitate, and the precipitate washed twice with 20 mM Tris-HCl buffer solution (pH 8.0). […]

[2] = biological target: T1, Pseudomonas sp. SE83 CPC acylase AcyII fivefold mutant F169αY/M31βL/F58βM/H70βS/I176βV (mI176) (Pseudomonas sp., UniProt P15558, F170Y/F297M/H309S/I415V/M270L); experiment: as above; settings: substrate CPC; purified enzyme; 0.1 M Tris-HCl pH 8.0, 37° C.; Lineweaver-Burk plot
T1 construct: made in house; host or cells: E. coli MC1061
Experimental: as §1, §2

[3] = biological target: T2, Pseudomonas sp. SE83 CPC acylase AcyII, wild type, SEQ ID NO: 2 (alpha-subunit SEQ ID NO: 4, beta-subunit SEQ ID NO: 5) (Pseudomonas sp., UniProt P15558); experiment: End-product inhibition by 7-ACA (inhibition constant), wild-type CPC acylase; settings: end-product inhibition of CPC conversion; pH 8.5
T2 construct: made in house; host or cells: E. coli MC1061
T2 sequence (P15558 2-230): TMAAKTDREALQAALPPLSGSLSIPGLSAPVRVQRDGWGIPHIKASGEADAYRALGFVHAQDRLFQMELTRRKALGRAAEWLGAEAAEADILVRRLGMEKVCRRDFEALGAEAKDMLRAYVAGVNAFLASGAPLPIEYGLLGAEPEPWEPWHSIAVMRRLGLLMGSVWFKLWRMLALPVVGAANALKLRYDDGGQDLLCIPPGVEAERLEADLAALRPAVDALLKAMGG
T2 sequence (P15558 240-774): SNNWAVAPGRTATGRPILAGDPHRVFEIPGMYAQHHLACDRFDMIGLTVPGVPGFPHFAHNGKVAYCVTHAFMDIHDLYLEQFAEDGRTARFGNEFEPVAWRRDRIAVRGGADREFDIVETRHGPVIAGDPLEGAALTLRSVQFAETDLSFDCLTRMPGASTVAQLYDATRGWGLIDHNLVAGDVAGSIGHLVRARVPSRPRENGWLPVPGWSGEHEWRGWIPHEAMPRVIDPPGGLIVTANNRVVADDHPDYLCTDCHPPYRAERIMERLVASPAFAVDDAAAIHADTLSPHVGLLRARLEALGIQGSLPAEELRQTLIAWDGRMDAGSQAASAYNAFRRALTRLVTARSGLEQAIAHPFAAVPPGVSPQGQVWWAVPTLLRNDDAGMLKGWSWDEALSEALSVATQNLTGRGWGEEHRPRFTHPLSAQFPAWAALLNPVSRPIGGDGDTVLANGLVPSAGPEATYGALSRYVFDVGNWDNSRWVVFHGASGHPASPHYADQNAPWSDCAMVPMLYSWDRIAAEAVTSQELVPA
Experimental: as §1, with “At this time, 1 unit has been defined as the amount of enzyme capable to produce 1 μmole of 7-ACA from CPC per minute.” left out, “The reactivity of CPC acylase mutant to CPC was determined by the following steps of adding the same amount of protein to a reaction mixture, performing an enzyme reaction for a fixed time, measuring the amount of 7-ACA produced in the reaction mixture, and representing it as a relative value. The end-product inhibition by 7-ACA was determined by adding a protein corresponding to the same active unit to a reaction mixture, performing an enzyme reaction for a fixed time; measuring the amount of 7-ACA produced in the reaction mixture, and representing it as a relative value.” left out

[4] = biological target: T3, Pseudomonas sp. SE83 CPC acylase AcyII sixfold mutant S12, V121αA/G139αS/F58βN/I75βT/I176βV/S471βC (alpha-subunit SEQ ID NO: 7, beta-subunit SEQ ID NO: 8) (Pseudomonas sp., UniProt P15558, F297N/G140S/I314T/I415V/S710C/V122A); experiment: End-product inhibition by 7-ACA (inhibition constant), S12 sixfold mutant; settings: end-product inhibition of CPC conversion; purified enzyme; pH 8.5
T3 construct: made in house; host or cells: E. coli MC1061
T3 sequence (P15558 2-230 V122A/G140S): T2 sequence (P15558 2-230) with V121A, G139S
T3 sequence (P15558 240-774 F297N/I314T/I415V/S710C): T2 sequence (P15558 240-774) with F58N, I75T, I176V, S471C
Experimental: as §1, with “At this time, 1 unit has been defined as the amount of enzyme capable to produce 1 μmole of 7-ACA from CPC per minute.” left out, “The reactivity of CPC acylase mutant to CPC was determined by the following steps of adding the same amount of protein to a reaction mixture, performing an enzyme reaction for a fixed time, measuring the amount of 7-ACA produced in the reaction mixture, and representing it as a relative value. The end-product inhibition by 7-ACA was determined by adding a protein corresponding to the same active unit to a reaction mixture, performing an enzyme reaction for a fixed time; measuring the amount of 7-ACA produced in the reaction mixture, and representing it as a relative value.” left out

T1 sequence (P15558 240-774 M270L/F297M/H309S/I415V): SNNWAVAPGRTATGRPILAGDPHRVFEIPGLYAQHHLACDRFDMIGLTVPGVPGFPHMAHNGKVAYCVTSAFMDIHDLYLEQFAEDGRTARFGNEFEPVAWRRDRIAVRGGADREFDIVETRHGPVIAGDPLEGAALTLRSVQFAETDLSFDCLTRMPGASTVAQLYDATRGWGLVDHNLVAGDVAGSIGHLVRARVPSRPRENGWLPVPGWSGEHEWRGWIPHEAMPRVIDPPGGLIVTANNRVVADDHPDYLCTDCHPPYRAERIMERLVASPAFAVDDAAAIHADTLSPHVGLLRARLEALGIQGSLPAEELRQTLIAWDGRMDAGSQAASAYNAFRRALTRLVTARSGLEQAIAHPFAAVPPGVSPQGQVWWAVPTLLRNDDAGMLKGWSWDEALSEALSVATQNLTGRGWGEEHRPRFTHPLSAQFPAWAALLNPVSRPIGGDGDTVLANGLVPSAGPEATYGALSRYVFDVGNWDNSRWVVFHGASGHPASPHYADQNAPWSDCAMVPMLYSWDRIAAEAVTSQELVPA
T1 sequence (P15558 2-230 F170Y): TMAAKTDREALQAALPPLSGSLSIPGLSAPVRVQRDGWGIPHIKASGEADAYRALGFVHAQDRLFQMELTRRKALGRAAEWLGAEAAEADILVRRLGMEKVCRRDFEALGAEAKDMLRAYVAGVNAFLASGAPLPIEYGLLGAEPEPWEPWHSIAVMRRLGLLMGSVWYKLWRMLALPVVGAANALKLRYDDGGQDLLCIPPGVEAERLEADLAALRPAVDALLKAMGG

| Structure (SMILES) | higher reaction efficiency to CPC as compared with the wild-type enzyme [1] | lower Km value as compared with the wild-type enzyme [1] | Kcat [2] [s⁻¹] | Kcat/Km [2] [M⁻¹ s⁻¹] | Ki [3] [mM] | Ki [4] [mM] |
| --- | --- | --- | --- | --- | --- | --- |
| CC(=O)OCC1=C(C(=O)O)N2C(=O)[C@@H](NC(=O)CCC[C@@H](N)C(=O)O)[C@H]2SC1 [CPC, Cephalosporin C] | about 15 fold | about 6.3 fold | 2.4 | 300 | – | – |
| CC(=O)OCC1=C(C(=O)O)N2C(=O)[C@@H](N)[C@H]2SC1 [7-ACA, 7-aminoacephalosporanic acid] | – | – | – | – | 0.4 | 1.9 |

From patent US7592168B2, “Cephalosporin C acylase mutant and method for preparing 7-ACA using same” (Sandoz AG, priority 2003, dated 2009)
